ChEMBL document CHEMBL5465560, “Selectivity Literature for EUbOPEN Chemogenomic Library” (2024)
Each block holds one compound with its values, some of them ahead of it.

What was measured:
[1] = test system: Tyrosine-protein kinase ABL1 (Homo sapiens), P00519 [T315I]; assay: Selectivity interaction (KinomeScan (DiscoverX)) EUB0000666a ABL1; settings: at 10 µM
[2] = target: T1, Phosphatidylinositol 3-kinase C2 domain-containing subunit gamma (Homo sapiens) (UniProt O75747); assay: Selectivity interaction (ProQinase) EUB0000171b PIK3C2G
T1 sequence (whole entry): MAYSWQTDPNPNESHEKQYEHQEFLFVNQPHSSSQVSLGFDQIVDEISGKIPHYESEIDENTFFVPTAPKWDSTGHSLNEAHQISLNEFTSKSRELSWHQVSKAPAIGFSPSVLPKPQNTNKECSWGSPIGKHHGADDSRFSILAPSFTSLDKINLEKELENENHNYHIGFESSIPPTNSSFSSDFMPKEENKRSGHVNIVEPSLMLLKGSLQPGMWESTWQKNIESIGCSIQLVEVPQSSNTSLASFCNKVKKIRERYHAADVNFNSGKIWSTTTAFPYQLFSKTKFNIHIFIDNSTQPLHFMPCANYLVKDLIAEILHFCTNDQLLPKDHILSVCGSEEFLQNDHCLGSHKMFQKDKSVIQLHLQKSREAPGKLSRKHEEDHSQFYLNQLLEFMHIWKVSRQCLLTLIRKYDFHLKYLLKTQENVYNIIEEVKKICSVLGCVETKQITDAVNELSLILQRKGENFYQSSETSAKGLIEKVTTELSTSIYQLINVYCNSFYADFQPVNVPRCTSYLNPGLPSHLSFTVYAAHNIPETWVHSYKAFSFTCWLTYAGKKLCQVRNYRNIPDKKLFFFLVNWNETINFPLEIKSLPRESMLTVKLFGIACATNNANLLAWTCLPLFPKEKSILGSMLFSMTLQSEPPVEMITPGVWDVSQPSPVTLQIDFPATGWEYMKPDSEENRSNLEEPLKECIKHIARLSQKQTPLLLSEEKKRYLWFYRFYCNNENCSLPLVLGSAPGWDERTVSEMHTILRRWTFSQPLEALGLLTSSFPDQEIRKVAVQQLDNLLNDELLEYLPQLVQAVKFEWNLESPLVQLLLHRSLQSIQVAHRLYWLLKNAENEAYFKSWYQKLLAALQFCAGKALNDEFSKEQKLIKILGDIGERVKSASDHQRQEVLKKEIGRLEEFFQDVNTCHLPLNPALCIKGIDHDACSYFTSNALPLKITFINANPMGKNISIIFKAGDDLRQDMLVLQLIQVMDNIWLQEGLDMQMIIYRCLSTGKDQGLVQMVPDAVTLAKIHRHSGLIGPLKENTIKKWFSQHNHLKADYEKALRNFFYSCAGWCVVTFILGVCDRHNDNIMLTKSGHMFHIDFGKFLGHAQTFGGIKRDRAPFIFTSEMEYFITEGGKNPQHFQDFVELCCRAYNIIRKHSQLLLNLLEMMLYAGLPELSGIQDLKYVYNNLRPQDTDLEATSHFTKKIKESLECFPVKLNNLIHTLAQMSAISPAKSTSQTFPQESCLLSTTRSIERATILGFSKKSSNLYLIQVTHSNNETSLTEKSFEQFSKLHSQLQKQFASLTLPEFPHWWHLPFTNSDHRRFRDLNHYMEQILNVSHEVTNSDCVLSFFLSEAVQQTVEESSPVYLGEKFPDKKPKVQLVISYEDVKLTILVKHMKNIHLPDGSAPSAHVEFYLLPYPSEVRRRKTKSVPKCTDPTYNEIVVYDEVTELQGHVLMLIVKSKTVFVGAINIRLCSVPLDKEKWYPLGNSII

[3] = target: T2, Tyrosine-protein kinase JAK3 (Homo sapiens) (UniProt P52333); assay: Selectivity interaction (KinomeScan (DiscoverX)) EUB0000595a JAK3; settings: at 10 µM
T2 sequence (whole entry): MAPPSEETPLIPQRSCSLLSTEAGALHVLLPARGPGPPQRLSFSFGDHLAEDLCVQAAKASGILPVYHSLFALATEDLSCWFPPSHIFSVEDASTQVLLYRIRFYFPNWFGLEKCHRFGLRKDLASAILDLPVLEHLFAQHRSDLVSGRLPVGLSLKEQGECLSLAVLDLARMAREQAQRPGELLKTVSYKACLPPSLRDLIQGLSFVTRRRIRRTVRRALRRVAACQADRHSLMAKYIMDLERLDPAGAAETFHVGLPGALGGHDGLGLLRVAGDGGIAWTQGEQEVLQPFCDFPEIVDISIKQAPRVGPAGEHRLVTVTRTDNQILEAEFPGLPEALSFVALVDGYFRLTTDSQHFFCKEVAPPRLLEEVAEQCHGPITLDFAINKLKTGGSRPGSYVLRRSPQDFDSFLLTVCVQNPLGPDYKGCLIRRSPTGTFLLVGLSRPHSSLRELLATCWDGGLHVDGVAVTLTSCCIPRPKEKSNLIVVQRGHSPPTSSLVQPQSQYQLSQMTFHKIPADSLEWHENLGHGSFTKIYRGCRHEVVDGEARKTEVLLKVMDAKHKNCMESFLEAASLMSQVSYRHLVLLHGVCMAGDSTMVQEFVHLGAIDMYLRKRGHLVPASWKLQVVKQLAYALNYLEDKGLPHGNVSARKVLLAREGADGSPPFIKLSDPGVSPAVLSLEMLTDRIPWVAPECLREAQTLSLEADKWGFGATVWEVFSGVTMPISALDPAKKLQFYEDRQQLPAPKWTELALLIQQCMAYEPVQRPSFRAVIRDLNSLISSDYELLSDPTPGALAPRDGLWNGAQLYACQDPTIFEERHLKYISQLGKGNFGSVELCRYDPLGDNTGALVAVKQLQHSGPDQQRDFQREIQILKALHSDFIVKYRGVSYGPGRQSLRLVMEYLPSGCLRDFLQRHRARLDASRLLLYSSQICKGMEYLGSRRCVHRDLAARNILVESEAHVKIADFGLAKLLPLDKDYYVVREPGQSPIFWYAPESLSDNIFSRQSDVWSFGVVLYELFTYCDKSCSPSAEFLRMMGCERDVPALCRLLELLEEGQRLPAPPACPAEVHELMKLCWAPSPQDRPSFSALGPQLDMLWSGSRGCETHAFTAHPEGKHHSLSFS

[4] = target: Mitogen-activated protein kinase 3 (Homo sapiens, UniProt P27361); assay: Selectivity interaction (KinomeScan (DiscoverX)) EUB0001079a MAPK3; settings: at 1 µM
Chain of Mitogen-activated protein kinase 3 (P27361 whole entry): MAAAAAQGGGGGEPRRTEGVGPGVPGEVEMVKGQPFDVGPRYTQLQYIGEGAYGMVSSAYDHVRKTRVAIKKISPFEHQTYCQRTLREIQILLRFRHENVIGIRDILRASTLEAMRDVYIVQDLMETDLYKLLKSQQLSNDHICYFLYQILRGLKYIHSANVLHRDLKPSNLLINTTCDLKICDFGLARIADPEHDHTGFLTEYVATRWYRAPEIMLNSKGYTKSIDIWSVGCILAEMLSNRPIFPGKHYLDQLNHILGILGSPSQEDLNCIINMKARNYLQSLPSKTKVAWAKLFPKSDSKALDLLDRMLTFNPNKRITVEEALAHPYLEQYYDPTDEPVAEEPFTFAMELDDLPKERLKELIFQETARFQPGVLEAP

Compound: O=C(NOC[C@H](O)CO)c1ccc(F)c(F)c1Nc1ccc(I)cc1F
% of control [1]: 86%

% of control ([2]; at 1 µM): 129%
% of control ([2]; at 5 µM): 108%
Compound: C=CC(=O)Nc1cccc(C(=O)Nc2ccc(Nc3cc(-c4[nH]c(SC)nc4C)ccn3)cc2)c1

Compound: COCC(=O)NC/C=C/c1ccc2ncnc(Nc3ccc(Oc4ccc(C)nc4)c(C)c3)c2c1 [CP-724714]
% of control [3]: 100%

Compound: Nc1cnc(N2CCc3cc(S(=O)(=O)Nc4c(F)cc(Cl)cc4F)cc(N4CCCC4=O)c32)nc1 [TP-020n]
% of control [4]: 91%
